Where “and” joins values, the source holds several entries; their conditions need not be identical. Equal values may be shown once. Entries after “also recorded” stand apart in the source; their conditions may differ. Read-outs that look alike come from different tables or passages of the source. Where only a bound is given, the exact number is not on record here.

Series [1] in a line: Small-animal PET, excretion pattern. The format is in vivo, mouse. As to conditions: PET 0–2, 4–5 and 24–25 h p.i., i.v. Here is the method:
Time points of PET imaging were 0–2, 4–5, and 24–25 h post injection (p.i.).

For the next series, the system named is PC3 mock tumor. The series is described as follows: Small-animal PET, uptake in mock tumor. As to conditions: for SUVmax PC3 mock tumor: tracer only; for SUVmax PC3 mock tumor +block: blocker i.v. before tracer: Cu-1 100 nmol 1, Cu-2 100 nmol 2, Cu-3 1000 nmol 4, Cu-4 500 nmol 4, Cu-6 250 nmol 1 (~5 min prior), Cu-5 100 nmol 5 (~30 min prior). Here is the method:
Changes are reported as % change of the SUVmax of the PD-L1 expressing over the respective value of the mock tumor. Similarly, the effect of blocking is reported as % change of the SUVmax of the animal injected with cold compound over that of the animal that received tracer only.
Animal experiments were performed in accordance with the guidelines of the German Regulations for Animal Welfare, approved by the Saxonian Ethical Committee for Animal Experiments (reference number DD24.1-5131/449/49). Male athymic NMRI-nude mice (Rj: NMRI-Foxn1^nu/nu, Janvier Laboratories, Le Genest-Saint-Isle, France) between 8 and 22 weeks of age were used. Under general anesthesia, [∼10% desflurane (Baxter, Deerfield, IL, USA) in 30 vol % oxygen + air] and warming, the animals were subcutaneously injected with 3–5 × 10^6 PC3-PD-L1 and PC3-mock cells [in 50 μL PBS +50 μL Matrigel (Corning, Glendale, USA)] into the right and left thigh, respectively. Tumor growth was monitored three times a week by caliper measurements, and mice with tumor sizes above 7 mm were included in the experiments.
For PET studies, general anesthesia was induced as described above. PET and X-ray computed tomography (CT) were performed in a dedicated small animal nanoScan PET/CT scanner, with four animals imaged simultaneously (Mediso, Budapest, Hungary). CT images were employed for attenuation correction and anatomical referencing. Animals received three individual scans corresponding to 0–2 h (dynamic) and 4.5 and 24 h (static) postinjection.
PD-L1 radiotracer candidates (in 300 μL sterile 0.9% NaCl/HEPES buffer, pH 6–7, between 7 and 12 MBq, molar activities > 12 GBq/μmol) were delivered over 30 s i.v. (lateral tail vein) and PET acquisition started simultaneously. For blocking condition, a defined quantity of compound (the same unlabeled compound, one from the same series or BMS-1166) was diluted in sterile saline and injected i.v. approximately 5 min prior to the radiotracer. Animals not subjected to blocking were injected with vehicle at the same time.
Three-dimensional list mode data were binned using the 400–600 keV energy window and sorted into 36 time frames (15 × 10 s, 5 × 30 s, 5 × 60 s, 4 × 300 s, 3 × 600 s, 4 × 900 s). Time frames were reconstructed using the Tera-TomoTM 3D algorithm applying a voxel size of 0.4 mm and corrections for decay, scatter, and attenuation.
Three-dimensional volumes of interest were delineated applying fixed thresholding at 35% of the measured maximum intensity. Standardized uptake values (SUV = [MBq detected activity/mL tissue]/[MBq injected activity/g body weight], […]) were determined in selected volumes of interest, among these PD-L1 and mock tumors.
14. In vivo: PET- SUV data
Standardized uptake values (SUVmax)
Supplementary table 1: In vivo standardized uptake values (SUVmax ± standard deviation) of 64Cu-labeled third series compounds [64Cu]Cu-1-6 at 1.5 (1–2), 4.5 (4–5) and 24.5 (24–25) hours
post injection (p.i.). Compounds used for blocking are described for each tracer and were intravenously injected in sterile saline at stated time before the radiotracer. Animals designated for
tracer-only received matched type and volume of vehicle at the same time.

A further series deals with T1, PD-L1 (Homo sapiens, UniProt Q9NZQ7).
T1 construct: expressed in transfected cells; host or cells: PC3 cells (human prostate carcinoma), stably transduced
T1 sequence (Q9NZQ7 19-290): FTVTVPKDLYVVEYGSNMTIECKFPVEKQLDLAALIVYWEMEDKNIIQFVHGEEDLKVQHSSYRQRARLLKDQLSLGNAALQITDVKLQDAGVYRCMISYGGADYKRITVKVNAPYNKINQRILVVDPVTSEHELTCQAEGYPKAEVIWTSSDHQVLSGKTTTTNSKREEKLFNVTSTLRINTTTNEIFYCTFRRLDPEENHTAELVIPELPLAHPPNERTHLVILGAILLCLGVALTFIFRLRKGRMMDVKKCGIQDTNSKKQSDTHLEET
The series is described as follows: Saturation binding assay on live PC3 PD-L1 overexpressing cells. The protocol:
For assessing the binding affinity of compounds [^64Cu]Cu-1–6, PC3 cells transduced with PD-L1 were used. Dissociation constants in equilibrium (KD) and maximum number of binding sites (Bmax) were determined in a saturation binding assay. The assays were performed with the addition of 2.5% bovine serum albumin (BSA) in the medium to prevent unspecific binding to plastic wells, as reported previously for our first radioligands.[1]
For saturation binding, cells were trypsinized (0.05% Trypsin–EDTA, Gibco, USA), counted, and diluted to ∼160,000 cells/mL. 0.25 mL of the cell solution was then added to each well of a 48-well plate (Falcon Multiwell #353078) and grown for at least 2 days.
To determine the affinity (KD) and the number of binding sites (Bmax) of the herein described PD-L1 small-molecule ligands, saturation binding was performed in at least three independent experiments, as described before.[45] Cells were brought to room temperature followed by cooling on ice (each 15 min). The medium was removed and replaced with 200 μL assay buffer [PBS + 2.5% (w/v) BSA] for total binding (TB) conditions or assay buffer containing 300 μM BMS-1166 (in DMSO, resulting in 0.03% v/v) for the assessment NSB. After 15 min preincubation, 200 μL of each of the eight serial 1:1 dilutions (500 to 3.91 nM) of the respective radioligand was added (in triplicate). Cells were then incubated for 90 min at 4 °C, washed (3 × 1 min), and lysed in 500 μL of 0.1 M NaOH + 1% SDS. Radioactivity of the lysate was measured and decay corrected to a reference time (end of radiolabeling). An additional plate was subjected to the same conditions (preincubation, incubation, and washing) using PBS without BSA for each experiment, and the protein content of these lysates was determined by BCA assay. From CPM measurements, final values (pmol/mg protein) were calculated using the mean protein content and molar activity.
Processed data were then subjected to nonlinear iterative curve fitting (GraphPad Prism 9) to yield Bmax (in pmol/mg protein) and KD (in nM).

The nature of series [2]: Radiotracer production data: stability of the product to in vivo experiments. The class given is physicochemical.
A short description of series [3]: Kinetic stability in PBS buffer (pH 7.4), radio-HPLC. The format is physicochemical. As to conditions: room temperature; for intact radioligand in PBS (pH 7.4): radio-HPLC at 1, 24 and 48 h. The protocol: The kinetic stability of all ^64Cu-labeled ligands was investigated in PBS buffer solution (pH 7.4) by incubation at room temperature and monitoring with radio-HPLC up to 48 h. […] During the time course, no changes in peak number/shape and retention time were observed, proving the stability of the compounds. […] At the 48 h time point, however, a shoulder appears with a slightly higher retention time (∼7.0 min), indicating minor decomposition (>94% intact radiotracer).
The corresponding radiotracer was labeled with approximately 500 MBq of ^64Cu in 50 μL of HEPES solution (adjusted to pH 4.5), as described above. After successful labeling, 450 μL of PBS solution (pH 7.4) was added, and the incubation was performed (room temperature) at 300 rpm. At each time point (1, 24, and 48 h), an aliquot was withdrawn and injected into the radio-HPLC (PerkinElmer, Massachusetts, United States system C or D, Supporting Information). Evaluation and graphical plotting were performed with OriginPro 9.0.

Setting [4] is: saturation binding, live PC3 PD-L1 overexpressing cells, 2.5% BSA, 90 min at 4 °C, mean ± SD, at least three experiments, read-out: KD.
Setting [5] is: saturation binding, live PC3 PD-L1 overexpressing cells, 2.5% BSA, mean ± SD.
[6] abbreviates: supplementary CSV, read-out: KD [nM], saturation binding assay.

`Cc1c(COc2cc(OCc3cncc(C#N)c3)c(CN[C@@H](CS(=O)(=O)O)C(=O)NCCS(=O)(=O)O)cc2Cl)cccc1-c1cccc(OCc2cn(CCCN3CCN(C(=O)[C@H](CS(=O)(=O)O)NC(=O)CC[C@H](C(=O)O)N4CCN(CC(=O)O)CCN(CC(=O)O)CC4)CC3)nn2)c1C.[64Cu+2]` [[^64Cu]Cu-1]: the “excretion / clearance pattern (PET)” value in series [1] is “mixed hepatobiliary and renal clearance”. Further, the “SUVmax PC3 mock tumor” value turned out to be 1.0 with PC3 mock tumor (1.5 (1–2) hours p.i.), 0.8 with PC3 mock tumor (4.5 (4–5) hours p.i.) and 1.2 in the series on PC3 mock tumor (24.5 (24–25) hours p.i.). Besides, the entries for the “SUVmax PC3 mock tumor +block” value in the series on PC3 mock tumor (1.5 (1–2) hours p.i.), in the series on PC3 mock tumor (4.5 (4–5) hours p.i.) and with PC3 mock tumor (24.5 (24–25) hours p.i.) were 1.4, 1.0 and 0.7, respectively. Further, the “blocking effect on SUVmax in the mock tumor” value in the series with PC3 mock tumor (24–25 h p.i., blocker: Cu-1, Cu-2 100 nmol unlabeled compound, Cu-3 1000 nmol 4) was −41 to −54%. Besides, the Kd at PD-L1 (setting [4]) is 80.5 ± 5.02 nM. Also, the “Bmax (maximum number of binding sites)” value at PD-L1 (setting [5]) is 7.05 pmol·mg^–1 and 7.05 ± 0.99 pmol·mg^–1. Besides, the “Stability of the product to in vivo experiments” value (shortened to “Stability of the product”) in series [2] is greater than 99%.
In the case of `Cc1c(COc2cc(OCc3cncc(S(C)(=O)=O)c3)c(CN[C@@H](CS(=O)(=O)O)C(=O)NCCP(=O)(O)O)cc2Cl)cccc1-c1cccc(OCc2cn(CCCN3CCN(C(=O)[C@H](CP(=O)(O)O)NC(=O)CC[C@H](C(=O)O)N4CCN(CC(=O)O)CCN(CC(=O)O)CC4)CC3)nn2)c1C.[64Cu+2]` [[^64Cu]Cu-6], the entries for the “SUVmax PC3 mock tumor” value with PC3 mock tumor (1.5 (1–2) hours p.i.), in the series on PC3 mock tumor (4.5 (4–5) hours p.i.) and in the series with PC3 mock tumor (24.5 (24–25) hours p.i.) were 0.83 ± 0.08, 1.35 ± 0.15 and 2.2 ± 0.2, respectively. For the same molecule, the “SUVmax PC3 mock tumor +block” value in the series with PC3 mock tumor (1.5 (1–2) hours p.i.) worked out at 1.04 ± 0.15; with PC3 mock tumor (4.5 (4–5) hours p.i.) it was 1.7 ± 0.1; in the series with PC3 mock tumor (24.5 (24–25) hours p.i.), 3.05 ± 0.35. Also, the “intact radiotracer in PBS (pH 7.4) at 48 h” value in series [3] (48 h) is listed as greater than 94%. Also, the “intact radioligand in PBS (pH 7.4)” value in series [3] was greater than 99%. Further, the Kd at PD-L1 (setting [4]) was 532 nM and 533 nM. Besides, the “Bmax (maximum number of binding sites)” value on PD-L1 (setting [5]) came to 10.3 ± 0.74 pmol·mg^–1. Besides, in series [2], the “Stability of the product” value is recorded as greater than 99%.
With `Cc1c(COc2cc(OCc3cncc(S(C)(=O)=O)c3)c(CN[C@@H](CS(=O)(=O)O)C(=O)NCCP(=O)(O)O)cc2Cl)cccc1-c1cccc(OCc2cn(CCCN3CCN(C(=O)CC[C@H](C(=O)O)N4CCN(CC(=O)O)CCN(CC(=O)O)CC4)CC3)nn2)c1C.[64Cu+2]` [[^64Cu]Cu-4], in series [1], the “excretion / clearance pattern (PET)” value is “almost exclusive hepatobiliary elimination; also recorded: primarily hepatobiliary clearance”. Besides, the “SUVmax PC3 mock tumor” value with PC3 mock tumor (1.5 (1–2) hours p.i.) was found to be 0.8 ± 0.10; with PC3 mock tumor (4.5 (4–5) hours p.i.), 0.45 ± 0.05; with PC3 mock tumor (24.5 (24–25) hours p.i.) it was 1.25 ± 0.15. Also, the figures for the “SUVmax PC3 mock tumor +block” value with PC3 mock tumor (1.5 (1–2) hours p.i.), in the series on PC3 mock tumor (4.5 (4–5) hours p.i.) and in the series with PC3 mock tumor (24.5 (24–25) hours p.i.) were 0.65 ± 0.05, 0.6 ± 0.2 and 0.8 ± 0.3, respectively. Moreover, the “intact radioligand in PBS (pH 7.4)” value in series [3] is reported as greater than 99%. Further, the Kd at PD-L1 (setting [4]) stood at 82.4 ± 7.42 nM; on PD-L1 (setting [6]) it was 112 nM. Moreover, the “Bmax (maximum number of binding sites)” value on PD-L1 (setting [5]) was 10.7 pmol·mg^–1 and 10.7 ± 1.34 pmol·mg^–1. Further, the “Stability of the product” value in series [2] is recorded as greater than 99%.
On to `Cc1c(COc2cc(OCc3cncc(S(C)(=O)=O)c3)c(CN[C@@H](CS(=O)(=O)O)C(=O)NCCP(=O)(O)O)cc2Cl)cccc1-c1cccc(OCc2cn(CCCN3CCN(C(=O)[C@H](CS(=O)(=O)O)NC(=O)CC[C@H](C(=O)O)N4CCN(CC(=O)O)CCN(CC(=O)O)CC4)CC3)nn2)c1C.[64Cu+2]` [[^64Cu]Cu-5], for which the “SUVmax PC3 mock tumor” value came out at 0.80 ± 0.10 in the series on PC3 mock tumor (1.5 (1–2) hours p.i.), 1.1 ± 0.1 with PC3 mock tumor (4.5 (4–5) hours p.i.) and 1.05 ± 0.65 with PC3 mock tumor (24.5 (24–25) hours p.i.). Also, the “SUVmax PC3 mock tumor +block” value in the series on PC3 mock tumor (1.5 (1–2) hours p.i.) amounted to 0.75 ± 0.05; with PC3 mock tumor (4.5 (4–5) hours p.i.), 0.85 ± 0.05; in the series with PC3 mock tumor (24.5 (24–25) hours p.i.), 1.6 ± 0.00. Also, the “intact radioligand in PBS (pH 7.4)” value in series [3] is on record as greater than 99%. Besides, the Kd on PD-L1 (setting [4]) came out at 112 ± 11 nM; at PD-L1 (setting [6]), 82.4 nM. Also, the “Bmax (maximum number of binding sites)” value at PD-L1 (setting [5]) was 19.1 pmol·mg^–1 and 19.1 ± 0.67 pmol·mg^–1. Further, the “Stability of the product” value in series [2] was greater than 99%.
